Test results: ChEMBL document CHEMBL5252555, “Antimicrobial Polyketides from the Marine-Derived Fungus Spiromastix sp. SCSIO F190” (J Nat Prod, 2023)
Converted amounts (≈) assume the structure as drawn. The source made the active and inactive calls. The calls are words filed in the database; no cut-off is given here.

What was measured:
[1] = tested on: Staphylococcus aureus; assay: Antibacterial activity against Staphylococcus aureus 16339 assessed as inhibition of bacterial growth incubated for 18 hrs by broth microdilution method; format: functional
[2] = tested on: Staphylococcus aureus; assay: Antibacterial activity against Staphylococcus aureus 3090 assessed as inhibition of bacterial growth incubated for 18 hrs by broth microdilution method; format: functional
[3] = tested on: Staphylococcus aureus; assay: Antibacterial activity against Staphylococcus aureus GDE4P037P assessed as inhibition of bacterial growth incubated for 18 hrs by broth microdilution method; format: functional
[4] = tested on: Enterococcus faecalis; assay: Antibacterial activity against Enterococcus faecalis 36950 assessed as inhibition of bacterial growth incubated for 18 hrs by broth microdilution method; format: functional
[5] = tested on: Staphylococcus aureus; assay: Antibacterial activity against Staphylococcus aureus 6917 assessed as inhibition of bacterial growth incubated for 18 hrs by broth microdilution method; format: functional
[6] = tested on: Staphylococcus aureus; assay: Antibacterial activity against Staphylococcus aureus 745324 assessed as inhibition of bacterial growth incubated for 18 hrs by broth microdilution method; format: functional
[7] = tested on: Staphylococcus aureus; assay: Antibacterial activity against Staphylococcus aureus ATCC 29213 assessed as inhibition of bacterial growth incubated for 18 hrs by broth microdilution method; format: functional
[8] = tested on: Staphylococcus aureus; assay: Antibacterial activity against Staphylococcus aureus 991 assessed as inhibition of bacterial growth incubated for 18 hrs by broth microdilution method; format: functional
[9] = tested on: Staphylococcus aureus; assay: Antibacterial activity against Staphylococcus aureus 718306 assessed as inhibition of bacterial growth incubated for 18 hrs by broth microdilution method; format: functional
[10] = tested on: Staphylococcus aureus; assay: Antibacterial activity against Staphylococcus aureus 1862 assessed as inhibition of bacterial growth incubated for 18 hrs by broth microdilution method; format: functional
[11] = tested on: Bacillus subtilis; assay: Antibacterial activity against Bacillus subtilis BS01 assessed as inhibition of bacterial growth incubated for 18 hrs by broth microdilution method; format: functional
[12] = tested on: Enterococcus gallinarum; assay: Antibacterial activity against Enterococcus gallinarum 5F52C assessed as inhibition of bacterial growth incubated for 18 hrs by broth microdilution method; format: functional
[13] = tested on: Enterococcus faecalis; assay: Antibacterial activity against Enterococcus faecalis ATCC 29212 assessed as inhibition of bacterial growth incubated for 18 hrs by broth microdilution method; format: functional
[14] = tested on: Staphylococcus aureus; assay: Antibacterial activity against methicillin-resistant Staphylococcus aureus assessed as inhibition of bacterial growth incubated for 18 hrs by broth microdilution method; format: functional
[15] = tested on: Micrococcus luteus; assay: Antibacterial activity against Micrococcus luteus ML01 assessed as inhibition of bacterial growth incubated for 18 hrs by broth microdilution method; format: functional
[16] = tested on: Staphylococcus aureus; assay: Antibacterial activity against Staphylococcus aureus 16162 assessed as inhibition of bacterial growth incubated for 18 hrs by broth microdilution method; format: functional
[17] = tested on: Enterococcus faecium; assay: Antibacterial activity against Enterococcus faecium 35682 assessed as inhibition of bacterial growth incubated for 18 hrs by broth microdilution method; format: functional
[18] = tested on: Staphylococcus aureus; assay: Antibacterial activity against Staphylococcus aureus 669 assessed as inhibition of bacterial growth incubated for 18 hrs by broth microdilution method; format: functional
[19] = tested on: Enterococcus faecium; assay: Antibacterial activity against Enterococcus faecium 36235 assessed as inhibition of bacterial growth incubated for 18 hrs by broth microdilution method; format: functional
[20] = tested on: Enterococcus faecium; assay: Antibacterial activity against Enterococcus faecium 36711 assessed as inhibition of bacterial growth incubated for 18 hrs by broth microdilution method; format: functional
[21] = tested on: Staphylococcus simulans; assay: Antibacterial activity against Staphylococcus simulans AKA1 assessed as inhibition of bacterial growth incubated for 18 hrs by broth microdilution method; format: functional
[22] = Cytotoxicity against human LX2 cells incubated for 48 hrs by CCK-8 assay; format: toxicity, cell-based; details: lx-2, 48 h
[23] = tested on: HepG2; assay: Cytotoxicity against human HepG2 cells incubated for 48 hrs by CCK-8 assay; format: functional, cell-based
[24] = tested on: HUVEC; assay: Cytotoxicity against HUVEC cells incubated for 48 hrs by CCK-8 assay; format: toxicity, cell-based; details: human
[25] = tested on: MCF7; assay: Cytotoxicity against human MCF7 cells incubated for 48 hrs by CCK-8 assay; format: functional, cell-based
[26] = tested on: RBE; assay: Cytotoxicity against human RBE cells incubated for 48 hrs by CCK-8 assay; format: functional, cell-based
[27] = tested on: HCT-116; assay: Cytotoxicity against human HCT-116 cells incubated for 48 hrs by CCK-8 assay; format: functional, cell-based
[28] = tested on: HeLa; assay: Cytotoxicity against human HeLa cells incubated for 48 hrs by CCK-8 assay; format: functional, cell-based
[29] = tested on: A549; assay: Cytotoxicity against human A549 cells incubated for 48 hrs by CCK-8 assay; format: functional, cell-based

Row | Compound | MIC [1] | MIC [2] | MIC [3] | MIC [4] | MIC [5] | MIC [6] | MIC [7] | MIC [8] | MIC [9] | MIC [10] | MIC [11] | MIC [12] | MIC [13] | MIC [14] | MIC [15] | MIC [16] | MIC [17] | MIC [18] | MIC [19] | MIC [20] | also measured
1 | CCCc1c(Cl)c(O)c(Cl)c2c1Oc1c(Cl)c(O)c(Cl)c(CCC)c1C(=O)O2 | 2 µg/mL (≈ 4.29 µM) | 4 µg/mL (≈ 8.58 µM) | 2 µg/mL (≈ 4.29 µM) | 1 µg/mL (≈ 2.15 µM) | 8 µg/mL (≈ 17.2 µM) | 4 µg/mL (≈ 8.58 µM) | 2 µg/mL (≈ 4.29 µM) | 2 µg/mL (≈ 4.29 µM) | 4 µg/mL (≈ 8.58 µM) | 2 µg/mL (≈ 4.29 µM) | 0.25 µg/mL (≈ 0.536 µM) | 2 µg/mL (≈ 4.29 µM) | 2 µg/mL (≈ 4.29 µM) | 2 µg/mL (≈ 4.29 µM) | 2 µg/mL (≈ 4.29 µM) | 4 µg/mL (≈ 8.58 µM) | 4 µg/mL (≈ 8.58 µM) | 2 µg/mL (≈ 4.29 µM) | 8 µg/mL (≈ 17.2 µM) | 4 µg/mL (≈ 8.58 µM) | MIC [21]: 2 µg/mL (≈ 4.29 µM)
2 | CCCCC/C=C1/C(=O)C(CC=C(C)C)=C(C)C1O (stereo unspecified) | > 128 µg/mL | > 128 µg/mL | > 128 µg/mL | > 128 µg/mL | > 128 µg/mL | > 128 µg/mL | > 128 µg/mL | > 128 µg/mL | > 128 µg/mL | > 128 µg/mL | > 128 µg/mL | > 128 µg/mL | > 128 µg/mL | > 128 µg/mL | > 128 µg/mL | > 128 µg/mL | > 128 µg/mL | > 128 µg/mL | > 128 µg/mL | > 128 µg/mL | Activity [22]: Non-Toxic; Activity [23]: inactive; Activity [24]: Non-Toxic; Activity [25]: inactive; Activity [26]: inactive; Activity [27]: inactive; Activity [28]: inactive; Activity [29]: inactive; MIC [21]: > 128 µg/mL
3 | CCCc1c(Cl)c(OC)c(Cl)c2c1Oc1c(Cl)c(O)c(Cl)c(CCC)c1C(=O)O2 | 1 µg/mL (≈ 2.08 µM) | 1 µg/mL (≈ 2.08 µM) | 2 µg/mL (≈ 4.17 µM) | 0.25 µg/mL (≈ 0.521 µM) | 2 µg/mL (≈ 4.17 µM) | 2 µg/mL (≈ 4.17 µM) | 4 µg/mL (≈ 8.33 µM) | 1 µg/mL (≈ 2.08 µM) | 2 µg/mL (≈ 4.17 µM) | 1 µg/mL (≈ 2.08 µM) | 0.125 µg/mL (≈ 0.26 µM) | 1 µg/mL (≈ 2.08 µM) | 1 µg/mL (≈ 2.08 µM) | 1 µg/mL (≈ 2.08 µM) | 0.5 µg/mL (≈ 1.04 µM) | 1 µg/mL (≈ 2.08 µM) | 2 µg/mL (≈ 4.17 µM) | 1 µg/mL (≈ 2.08 µM) | 2 µg/mL (≈ 4.17 µM) | 2 µg/mL (≈ 4.17 µM) | MIC [21]: 0.25 µg/mL (≈ 0.521 µM)
4 | CCCc1cc(Oc2c(O)c(Cl)c(O)c(Cl)c2CCC)c(Cl)c(OC)c1Cl | 2 µg/mL (≈ 4.4 µM) | 2 µg/mL (≈ 4.4 µM) | 2 µg/mL (≈ 4.4 µM) | 0.5 µg/mL (≈ 1.1 µM) | 2 µg/mL (≈ 4.4 µM) | 2 µg/mL (≈ 4.4 µM) | 2 µg/mL (≈ 4.4 µM) | 2 µg/mL (≈ 4.4 µM) | 1 µg/mL (≈ 2.2 µM) | 2 µg/mL (≈ 4.4 µM) | 1 µg/mL (≈ 2.2 µM) | 4 µg/mL (≈ 8.81 µM) | 2 µg/mL (≈ 4.4 µM) | 2 µg/mL (≈ 4.4 µM) | 1 µg/mL (≈ 2.2 µM) | 2 µg/mL (≈ 4.4 µM) | 2 µg/mL (≈ 4.4 µM) | 2 µg/mL (≈ 4.4 µM) | 1 µg/mL (≈ 2.2 µM) | 2 µg/mL (≈ 4.4 µM) | Activity [22]: Non-Toxic; Activity [23]: inactive; Activity [24]: Non-Toxic; Activity [25]: inactive; Activity [26]: inactive; Activity [27]: inactive; Activity [28]: inactive; Activity [29]: inactive; MIC [21]: 2 µg/mL (≈ 4.4 µM)
5 | CCCc1c(Cl)c(OC)cc2c1Oc1c(Cl)c(O)c(Cl)c(CCC)c1C(=O)O2 | 2 µg/mL (≈ 4.49 µM) | 2 µg/mL (≈ 4.49 µM) | 4 µg/mL (≈ 8.97 µM) | 0.5 µg/mL (≈ 1.12 µM) | 4 µg/mL (≈ 8.97 µM) | 4 µg/mL (≈ 8.97 µM) | 4 µg/mL (≈ 8.97 µM) | 2 µg/mL (≈ 4.49 µM) | 2 µg/mL (≈ 4.49 µM) | 2 µg/mL (≈ 4.49 µM) | 0.5 µg/mL (≈ 1.12 µM) | 2 µg/mL (≈ 4.49 µM) | 2 µg/mL (≈ 4.49 µM) | 2 µg/mL (≈ 4.49 µM) | 1 µg/mL (≈ 2.24 µM) | 2 µg/mL (≈ 4.49 µM) | 8 µg/mL (≈ 17.9 µM) | 4 µg/mL (≈ 8.97 µM) | 4 µg/mL (≈ 8.97 µM) | 2 µg/mL (≈ 4.49 µM) | MIC [21]: 0.5 µg/mL (≈ 1.12 µM)
